# Source: patent publication US20050215498A1, “Method for the protection of endothelial and epithclial cells during chemotherapy” (priority 2002, published 2005)
# Like-named read-outs stand apart in the source and are kept apart here.
# Tests used:
# MHC class II on HMEC = conditions: F-Ara various concentrations, 24 hours, data not shown
# Protocol: (§1) Cell surface expression of ICAM-1 (Becton Dickinson/Pharmingen, Heidelberg, Germany) and MHC class I (w6/32, hybridoma supernatant, ATCC, Manassas, Va., USA) molecules on HMEC was assessed by the indirect immunofluorescence technique and subsequent flow cytometry using the FACScan™ flow cytometer and the Cell-Quest™ analysis program (Becton Dickinson, Heidelberg, Germany). Endothelial cells were treated as given and after incubation harvested with trypsin/EDTA (Gibco), washed once in cold PBS/10% FCS and incubated 1 hour on ice with 5 μg/mL of anti-adhesion molecule MoAbs. Cells were washed again and incubated with a goat anti-mouse IgG-FITC conjugated antibody F(ab)2 fragment (Dako, Hamburg, Germany) for 45 minutes on ice. Cells were then washed in PBS/10% FCS and subjected to analysis. Viability of the cells was determined by concurrent propidium iodide (0.2 μg/mL, Sigma, Deisenhofen, Germany) staining. Omitting of the first antibody served as a negative control to detect unspecific fluorescence.
# (§2) Since a proinflammatory activation of target cells is often associated with increased expression of major histocompatibility antigens (MHC) class I and II, we did further flow cytometric analyses for these antigens after incubation with F-Ara in various concentrations for 24 hours.
# [1] = tested on: ICAM-1 expression on HMEC; assay: Flow cytometric analysis of ICAM-1 expression on HMEC; assay type: cell-based, human
# Protocol: as §1
# Based on previous observations that pretransplant conditioning not only damages, but also leads to proinflammatory activation of endothelial cells in terms of adhesion molecule induction,^15 we next investigated the expression of ICAM-1 under the influence of F-Ara. […] We next asked whether Defibrotide would also be functional as an antagonist of F-Ara in this experimental setting. HMEC were treated with F-Ara as given and incubated in the presence or absence of descending concentrations of Defibrotide.
# [2] = tested on: SW 480 gut epithelial cell line; assay: Flow cytometric apoptosis analysis in SW 480; assay type: cell-based; conditions: F-Ara 10 μg/mL, 48 hours
# Protocol: (§3) An established method for detecting apoptosis in human endothelial cells was performed as previously described^20 using flow cytometry (FACScan™ and CellQuest™ software, Becton Dickinson, Heidelberg, Germany). Endothelial and epithelial cells were either left untreated or incubated with F-Ara in descending concentrations (range: 10 μg/mL to 0.1 μg/mL) in the presence or absence of Defibrotide for 48 hours. Afterwards, cells were washed in PBS/10% FCS and stained with the necrosis detecting dye propidium iodide (PI, 0.2 μg/mL, Sigma, Deisenhofen, Germany). Apoptotic cells were identified by a PI-negative staining and by a characteristic side scatter image distinct from that of non-apoptotic cells. At least three experiments per cell type have been performed.
# (§4) Skin, the gastrointestinal tract (GIT) and most likely the lung are among the primary targets of GvHD. Therefore, it was reasonable to test the influence of F-Ara on cell lines derived from these organs. Cells from keratinocyte (HaCaT), GIT (SW 480), alveolar (A549) and bronchial epithelial (BEAS-2B) cell lines as well as primary bronchial epithelial cells were incubated with F-Ara (10 μg/mL) as given for FIGS. 1 and 2 and assayed in flow cytometric apoptosis analyses 48 hours post treatment. […] Again, the protective potential of Defibrotide (100 μg/mL) was assessed.
# [3] = tested on: primary acute myeloid leukemia (AML) cells; assay: Propidium iodide staining (vitality) of primary AML cells; assay type: cell-based, human; conditions: 48 hours
# Protocol: (§5) F-Ara: 10 μg/mL. D: 100 μg/mL. A: Propidium iodide staining of primary acute myeloid leukemia (AML) cells derived from a patient in blast crisis (70% blasts of total PBMC count). Results are given in mean % vitality of three independent experiments. *: p=0.008 of Control- versus F-Ara-treated AML cells. B: Flow cytometric analysis of the SSC-image of PI-negative PBMC. Shown is one representative out of five independent experiments with different blood donors.
# Next to its desirable protective capacity for endothelial and epithelial cells against F-Ara induced apoptosis it was important to investigate whether Defibrotide would also interfere with the anti-leukaemic properties of F-Ara. To address this question, primary peripheral blood derived acute myeloid leukaemic (AML) cells with a blast amount of 70% were thawed, kept in culture for 24 hours and subsequently treated with F-Ara in the presence or absence of Defibrotide for another 48 hours. […] However, F-Ara induced cell death in up to 80% of the cells. […] This could be observed after as early as 24 hours of incubation. […] We next asked whether Defibrotide might modulate the effect of F-Ara against normal haematopoetic cells and performed apoptosis assays (SSC-image) with PBMC from normal human blood donors. […]
# [4] = tested on: MHC class I molecules on HMEC; assay: Flow cytometric analysis of MHC class I on HMEC; assay type: cell-based, human; conditions: for induction of mean fluorescence intensity of MHC class I: 24 hours
# Protocol: as §1, §2
# [5] = tested on: human microvascular endothelial cells (HMEC); assay type: cell-based
# Protocol: All cell culture reagents have been purchased by Gibco BRL (Karlsruhe, Germany) unless stated otherwise. 2-Fluoroadenine 9-beta-D-arabinofuranoside (F-Ara) was obtained from Sigma, Deisenhofen, Germany, Defibrotide vials were obtained from Prociclide™, Crinos, Como, Italy.
# as §3
# An alternative method for the detection of apoptosis used microscopic analysis of DNA fluorescence labeled cells. 1×10 ^5/plate endothelial cells were seeded in 35 mm petri dishes (Nunc, Wiesbaden, Germany). These cells were treated as given above and subsequently fixed with Methanol/Acetone (1:1) for 2 minutes, washed once in PBS and stained with 4,6-Diamidino-2-phenylindole (DAPI) (0.5 μg/mL, Sigma, Deisenhofen, Germany), dissolved in 20% Glycerin/PBS. Samples were mounted and subjected to microscopic analysis.
# In order to assess the influence of F-Ara on the viability of cultured human endothelial cells, HMEC were incubated with descending pharmacologically relevant concentrations (10 μg/mL to 0.1 μg/mL) of 2-Fluoroadenine 9-beta-D-arabinofuranoside as the metabolized form of fludarabine. […] After 48 hours of incubation HMEC were subjected to apoptosis assays using the detection of cellular granularity of propidium iodide negative cells (side scatter (SSC) image in flow cytometry) and microscopic analyses of DAPI-stained cells, respectively.
# In order to exclude unspecific artifical extracellular interaction of F-Ara and Defibrotide in vitro HMEC were pretreated with Defibrotide for 1 hour and subsequently, after 3 washing steps, incubated with F-Ara for another 48 hours and vice versa.
# [6] = tested on: HMEC as target cells for allogeneic CTL; assay: 51Cr release assay, lysis of HMEC by allogeneic PBMC / CD8+ CTL; assay type: cell-based, human
# Source text: Peripheral blood mononuclear cells (PBMC) were derived from heparinized (Novo Nordisk, Mainz, Germany) blood of healthy human volunteers or buffy coats from the Bavarian Red Cross according to a standard protocol using Ficoll hypaque (Pharmacia, Freiburg, Germany) density gradient centrifugation. Cells were then stimulated in a ratio of 1:1 and 2:1 with irradiated (20 Gy) HMEC for 7 days in the presence of Interleukin 2 (50 U/mL) and 10% human AB serum (Sigma, Deisenhofen, Germany). Alternatively, PBMC were selected for CD8+ T cells and natural killer (NK) cells using cell isolation kits according to the manufactuer's instructions (MACS™, Miltenyi Bio-tech, Bergisch-Gladbach, Germany) based on the deletion of non CD8+ and non NK cells, respectively. Stimulation of the selected cells was identical to that of whole PBMC cultures, except for NK cells which were stimulated for only 3 days.
# T cell- or NK-cell mediated cytotoxicity was assessed according to a well established protocol,^23 using a 4h ^51Cr radioisotope assay. HMEC that had either been left untreated or incubated with F-Ara (10μg/mL) overnight were used as target cells, to be labeled 0.4 mCi Na2^51CrO4 for 2 hours. After 3 washing steps, target cells were adjusted to 10^4 cells/mL and coincubated with PBMC, CD8+ or NK effector cells at descending effector to target ratios for another 4 hours. Supernatants were transfered to dry scintillation plates and counted in a γ-counter (all from Canberra Packard, Darmstadt, Germany). Autologous (effector) B-Lymphoblastoid cell lines (B-LCL) and K562 as NK sensitive cells were taken as additional control targets. The percentage of specific lysis was calculated as: [(experimental release−spontaneous release)/(maximal release−spontaneous release)]×100. Spontaneous release in all experiments was always below 20%. […]
# [7] = tested on: PBMC from normal human blood donors; assay: Apoptosis assay (SSC-image) with PBMC; assay type: cell-based
# Protocol: as §5
# as §3, with “performed. […]” for “performed.”
# [8] = tested on: BEAS-2B bronchial epithelial cell line and primary bronchial epithelial cells; assay: Flow cytometric apoptosis analysis in bronchial epithelial cells; assay type: cell-based; conditions: F-Ara 10 μg/mL, 48 hours
# Protocol: as §3, §4
# endothelial cells = assay: Radiation induced endothelial cell death; assay type: cell-based; conditions: data not shown
# Source text: Since in many pre-transplant protocols fludarabine is used in combination with ionizing radiation it was important to test whether these two compounds would cooperate in affecting endothelial cells.
# [9] = tested on: HMEC as target cells for allogeneic NK cells; assay: 51Cr release assay, lysis of HMEC by allogeneic NK cells; assay type: cell-based, human; conditions: F-Ara 10 μg/mL, 24 hours
# Protocol: T cell- or NK-cell mediated cytotoxicity was assessed according to a well established protocol,^23 using a 4h ^51Cr radioisotope assay. HMEC that had either been left untreated or incubated with F-Ara (10μg/mL) overnight were used as target cells, to be labeled 0.4 mCi Na2^51CrO4 for 2 hours. After 3 washing steps, target cells were adjusted to 10^4 cells/mL and coincubated with PBMC, CD8+ or NK effector cells at descending effector to target ratios for another 4 hours. Supernatants were transfered to dry scintillation plates and counted in a γ-counter (all from Canberra Packard, Darmstadt, Germany). […] The percentage of specific lysis was calculated as: [(experimental release−spontaneous release)/(maximal release−spontaneous release)]×100.
# [10] = manufacturers's instructions, cited from earlier work
# [11] = tested on: HaCaT human keratinocyte cell line; assay: Flow cytometric apoptosis analysis in HaCaT; assay type: cell-based; conditions: Defibrotide alone, data not shown
# Protocol: as §3
# (§6) An alternative method for the detection of apoptosis used microscopic analysis of DNA fluorescence labeled cells. 1×10 ^5/plate endothelial cells were seeded in 35 mm petri dishes (Nunc, Wiesbaden, Germany). These cells were treated as given above and subsequently fixed with Methanol/Acetone (1:1) for 2 minutes, washed once in PBS and stained with 4,6-Diamidino-2-phenylindole (DAPI) (0.5 μg/mL, Sigma, Deisenhofen, Germany), dissolved in 20% Glycerin/PBS. […]
# (§7) Skin, the gastrointestinal tract (GIT) and most likely the lung are among the primary targets of GvHD. […] Again, the protective potential of Defibrotide (100 μg/mL) was assessed.
# [12] = tested on: A549 alveolar epithelial cells; assay: Flow cytometric apoptosis analysis in A549; assay type: cell-based, human; conditions: Defibrotide alone, data not shown
# Protocol: as §3, §6, §7
molecule,measurement,setting,value
"Nc1nc(F)nc2c1ncn2[C@@H]1O[C@H](CO)[C@@H](O)[C@@H]1O [F-Ara, 2-fluoro-9-β-D-arabinofuranosyladenine]",MHC class II expression,MHC class II on HMEC,remained unchanged
same,concentrations effective in inducing ICAM-1,[1]; 24 hours,≥ 1 µg/mL
same,ICAM-1 expression on HMEC,"[1]; F-Ara, 24 hours of incubation",significantly enhances expression
same,apoptosis induction,[2],resistant
same,cell death of AML cells,"[3]; F-Ara 10 μg/mL, almost 50% died spontaneously",up to 80%
same,induction of mean fluorescence intensity of MHC class I,[4]; F-Ara 5 μg/mL,1.3 fold
same,induction of mean fluorescence intensity of MHC class I,[4]; F-Ara 10 μg/mL,1.5 fold
same,apoptosis in HMEC,"[5]; F-Ara 1 μg/mL, 48 hours",no longer effective
same,apoptosis in HMEC,"[5]; F-Ara 10 and 5 μg/mL, 48 hours",causes apoptosis
same,apoptosis in HMEC,"[5]; after 24h, data not shown",already detectable
same,lysis of F-Ara-treated HMEC by CD8+ CTL versus control HMEC,[6]; CD8+ selected effectors,significantly higher
same,antigenicity of HMEC towards allogeneic PBMC,"[6]; F-Ara (1 μg/mL) treated targets, all E/T ratios tested",increased the antigenicity
same,% apoptotic cells,"[7]; F-Ara 10 μg/mL, untreated control 5.1%",40.1%
same,apoptosis induction,[8],resistant
same,enhancement of radiation induced cell death,endothelial cells; combination with ionizing radiation,could not find any enhancement
same,allogenicity of HMEC towards NK cells,[9],significantly downregulated
Nc1nc(F)nc2c1ncn2[C@@H]1O[C@H](COP(=O)(O)OP(=O)(O)OP(=O)(O)O)[C@@H](O)[C@@H]1O [fludarabine triphosphate],median intracellular level in target cells,[10]; concentration representing 20 μM,5.8 µg/mL
same,median intracellular level in target cells,[10],20 µM
Defibrotide,number of apoptotic cells,[11],did not influence the number of apoptotic cells
same,F-Ara induced ICAM-1 expression,[1]; Defibrotide 100 μg/mL and 10 μg/mL with F-Ara 10 μg/mL,antagonized
same,ICAM-1 expression,"[1]; Defibrotide alone, every concentration tested, data not shown",remained unchanged
same,protection of AML cells from F-Ara mediated toxicity,[3]; Defibrotide 100 μg/mL with F-Ara 10 μg/mL,not able to protect
same,number of apoptotic cells,[12],did not influence the number of apoptotic cells
same,"MHC class I molecules, F-Ara versus F-Ara+D treated HMEC",[4]; data not shown,significant downregulation
same,protection of F-Ara induced cell death,"[5]; Defibrotide 100 to 0.1 μg/mL with F-Ara 10 μg/mL, 48 hours",dose-dependent protection
same,endothelial cell viability,"[5]; Defibrotide alone, 48 hours",did not influence endothelial cell viability
same,protection from F-Ara induced apoptosis,"[5]; pretreatment with Defibrotide 1 hour, washing, then F-Ara 48 hours",sufficient to protect cells
same,endothelial programmed cell death,"[5]; pretreatment with F-Ara 1 hour, subsequent incubation with Defibrotide",did not lead to endothelial programmed cell death
same,specific lysis of HMEC by CD8+ CTL,[6]; pretreatment of target HMEC with F-Ara and Defibrotide (F-Ara+D),downregulated specific lysis even below control levels
same,% apoptotic cells,[7]; F-Ara 10 μg/mL with Defibrotide 100 μg/mL,43.1%
same,protection against radiation induced endothelial cell damage,endothelial cells,not protective
